The results in this text go back to patent US7795261B2, “Substituted 1-piperidin-4-yl-4-pyrrolidin-3-yl-piperazine derivatives and their use as neurokinin antagonists” (Janssen Pharmaceutica NV, priority 2002, dated 2010).

The target in one test is NK1 (Homo sapiens, UniProt P25103). Description: Signal transduction (ST), intracellular Ca++ (FLIPR), NK1 antagonistic activity. It counts as cell-based. The conditions noted are these: read-out: pIC50 NK1 (converted). As for the experimental part:
(§1) This test evaluates in vitro functional NK1 antagonistic activity. For the measurements of intracellular Ca^++ concentrations the cells were grown on 96-well (black wall/transparent bottom) plates from Costar for 2 days until they reached confluence. The cells were loaded with 2 μM Fluo3 in DMEM containing 0.1% BSA and 2.5 mM probenecid for 1 h at 37° C. They were washed 3× with a Krebs buffer (140 mM NaCl, 1 mM MgCl2×6H2O, 5 mM KCl, 10 mM glucose, 5 mM HEPES; 1.25 mM CaCl2; pH 7.4) containing 2.5 mM probenecid and 0.1% BSA (Ca^++-buffer). The cells were preincubated with a concentration range of antagonists for 20 min at RT and Ca^++-signals after addition of the agonists were measured in a Fluorescence Image Plate Reader (FLIPR from Molecular Devices, Crawley, England). The peak of the Ca^++-transient was considered as the relevant signal and the mean values of corresponding wells were analysed as described below.
The sigmoidal dose response curves were analysed by computerised curve-fitting, using the GraphPad Program. […] For antagonist responses the IC50-value was calculated using non-linear regression. […]

The target in another test is T1, NK3 (Homo sapiens, UniProt P29371).
T1 sequence (P29371 1-465): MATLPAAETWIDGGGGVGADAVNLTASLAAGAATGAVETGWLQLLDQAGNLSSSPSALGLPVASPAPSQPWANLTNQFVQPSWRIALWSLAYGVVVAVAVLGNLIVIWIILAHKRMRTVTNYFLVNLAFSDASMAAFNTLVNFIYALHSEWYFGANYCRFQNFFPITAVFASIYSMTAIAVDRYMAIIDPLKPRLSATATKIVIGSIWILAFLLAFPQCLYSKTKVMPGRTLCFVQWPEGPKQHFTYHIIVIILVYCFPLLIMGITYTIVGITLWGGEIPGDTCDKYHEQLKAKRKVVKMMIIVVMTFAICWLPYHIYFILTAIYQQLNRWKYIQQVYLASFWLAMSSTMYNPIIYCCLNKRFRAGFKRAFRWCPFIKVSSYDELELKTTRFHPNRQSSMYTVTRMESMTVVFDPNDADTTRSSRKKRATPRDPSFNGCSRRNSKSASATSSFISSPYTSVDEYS
Kind of test: Signal transduction (ST), intracellular Ca++ (FLIPR), NK3. It counts as cell-based. The conditions noted are these: read-out: pIC50 NK3 (converted). On the procedure:
[The procedure below names another target; the source lists this target under the same test.] as §1
The sigmoidal dose response curves were analysed by computerised curve-fitting, using the GraphPad Program. […] For antagonist responses the IC50-value was calculated using non-linear regression.
The last columns indicates—without being limited therefore—for which the compounds might be most suitable. Of course, since for some neurokinin receptors no data was determined, it is obvious that these compounds might be attributed to another suitable use.

Chain of NK1 (P25103 whole entry): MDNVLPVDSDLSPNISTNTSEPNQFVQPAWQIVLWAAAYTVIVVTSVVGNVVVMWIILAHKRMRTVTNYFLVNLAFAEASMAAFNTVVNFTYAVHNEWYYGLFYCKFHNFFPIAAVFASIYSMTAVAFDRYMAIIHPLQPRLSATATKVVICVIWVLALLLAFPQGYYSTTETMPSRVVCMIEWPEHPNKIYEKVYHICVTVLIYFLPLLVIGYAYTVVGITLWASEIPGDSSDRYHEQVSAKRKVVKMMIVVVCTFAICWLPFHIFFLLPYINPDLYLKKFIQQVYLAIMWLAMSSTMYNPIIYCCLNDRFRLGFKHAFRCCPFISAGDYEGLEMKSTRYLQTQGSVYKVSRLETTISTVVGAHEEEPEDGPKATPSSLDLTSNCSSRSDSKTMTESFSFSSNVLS

In the case of `Cc1cc(C(=O)N2CCC(N3CCN([C@H]4CCN(C(=O)c5cc(C(F)(F)F)cc(C(F)(F)F)c5)[C@H](Cc5ccccc5)C4)CC3)C2)no1` (some centres unmarked) [Compound 47], the IC50 at NK1 was 39.8 nM; at NK3, 3.98 µM.
For `Cc1noc(C)c1C(=O)N1CCC(N2CCN([C@H]3CCN(C(=O)c4cc(C(F)(F)F)cc(C(F)(F)F)c4)[C@H](Cc4ccccc4)C3)CC2)C1` (some centres unmarked) [Compound 48], in that order: 15.8 nM and 2.51 µM.
Regarding `Cc1nc(C)c(C(=O)N2CCC(N3CCN([C@H]4CCN(C(=O)c5cc(C(F)(F)F)cc(C(F)(F)F)c5)[C@H](Cc5ccccc5)C4)CC3)C2)s1` (some centres unmarked) [Compound 50], the IC50 is 6.31 nM on NK1 and 3.16 µM at NK3.
For `Cc1nnsc1C(=O)N1CCC(N2CCN([C@H]3CCN(C(=O)c4cc(C(F)(F)F)cc(C(F)(F)F)c4)[C@H](Cc4ccccc4)C3)CC2)C1` (some centres unmarked) [Compound 51], the IC50 on NK1 was 63.1 nM; on NK3, 3.98 µM.
Consider `O=C(c1csnn1)N1CCC(N2CCN([C@H]3CCN(C(=O)c4cc(C(F)(F)F)cc(C(F)(F)F)c4)[C@H](Cc4ccccc4)C3)CC2)C1` (some centres unmarked) [Compound 52], for which the IC50 was 31.6 nM at NK1 and 0.631 µM on NK3.
Take `O=C(c1snnc1-c1ccccc1)N1CCC(N2CCN([C@H]3CCN(C(=O)c4cc(C(F)(F)F)cc(C(F)(F)F)c4)[C@H](Cc4ccccc4)C3)CC2)C1` (some centres unmarked) [Compound 53]: the IC50 was 39.8 nM on NK1 and 3.16 µM at NK3.
As to `O=C(c1cccc2ccccc12)N1CCC(N2CCN([C@H]3CCN(C(=O)c4cc(C(F)(F)F)cc(C(F)(F)F)c4)[C@H](Cc4ccccc4)C3)CC2)C1` (some centres unmarked) [Compound 54], the figures for the IC50 at NK1 and on NK3 were 39.8 nM and 0.794 µM, respectively.
On to `COc1ccc2[nH]c(C(=O)N3CCC(N4CCN([C@H]5CCN(C(=O)c6cc(C(F)(F)F)cc(C(F)(F)F)c6)[C@H](Cc6ccccc6)C5)CC4)C3)cc2c1` (some centres unmarked) [Compound 55], for which the IC50 on NK1 was 316 nM; at NK3, 7.94 µM.
Taken in the same sequence, the figures for `Cn1c(C(=O)N2CCC(N3CCN([C@H]4CCN(C(=O)c5cc(C(F)(F)F)cc(C(F)(F)F)c5)[C@H](Cc5ccccc5)C4)CC3)C2)cc2ccccc21` (some centres unmarked) [Compound 57] were 126 nM and 3.16 µM.
For `O=C(c1cnc2ccccc2n1)N1CCC(N2CCN([C@H]3CCN(C(=O)c4cc(C(F)(F)F)cc(C(F)(F)F)c4)[C@H](Cc4ccccc4)C3)CC2)C1` (some centres unmarked) [Compound 60], in that order: 31.6 nM and 2.51 µM.
Taken in the same sequence, the figures for `O=C(C1CCc2cc(F)ccc2O1)N1CCC(N2CCN([C@H]3CCN(C(=O)c4cc(C(F)(F)F)cc(C(F)(F)F)c4)[C@H](Cc4ccccc4)C3)CC2)C1` (some centres unmarked) [Compound 61] were 31.6 nM and 6.31 µM.
For the molecule `O=C(c1cc2ccccc2o1)N1CCC(N2CCN([C@H]3CCN(C(=O)c4cc(C(F)(F)F)cc(C(F)(F)F)c4)[C@H](Cc4ccccc4)C3)CC2)C1` (some centres unmarked) [Compound 62], the values for the IC50 on NK1 and on NK3 were 63.1 nM and 3.98 µM, respectively.
For `O=C(c1cc2ccccc2s1)N1CCC(N2CCN([C@H]3CCN(C(=O)c4cc(C(F)(F)F)cc(C(F)(F)F)c4)[C@H](Cc4ccccc4)C3)CC2)C1` (some centres unmarked) [Compound 63], in that order: 126 nM and 3.16 µM.
For `COc1cc(CC(=O)N2CCC(N3CCN([C@H]4CCN(C(=O)c5cc(C(F)(F)F)cc(C(F)(F)F)c5)[C@H](Cc5ccccc5)C4)CC3)C2)cc(OC)c1OC` (some centres unmarked) [Compound 65], in that order: 12.6 nM and 3.16 µM.
For `O=C(c1ccno1)N1CCC(N2CCN([C@H]3CCN(C(=O)c4cc(C(F)(F)F)cc(C(F)(F)F)c4)[C@H](Cc4ccccc4)C3)CC2)C1` (some centres unmarked) [Compound 68], in that order: 31.6 nM and 1.58 µM.
For the molecule `CC1(C(=O)N2CCC(N3CCN([C@H]4CCN(C(=O)c5cc(C(F)(F)F)cc(C(F)(F)F)c5)[C@H](Cc5ccccc5)C4)CC3)C2)CC1` (some centres unmarked) [Compound 73], the IC50 at NK1 was 10 nM; on NK3, 1.58 µM.
For `O=C(C1CCCC1)N1CCC(N2CCN([C@H]3CCN(C(=O)c4cc(C(F)(F)F)cc(C(F)(F)F)c4)[C@H](Cc4ccccc4)C3)CC2)C1` (some centres unmarked) [Compound 74], in that order: 20 nM and 0.501 µM.
`O=C(C1CCCO1)N1CCC(N2CCN([C@H]3CCN(C(=O)c4cc(C(F)(F)F)cc(C(F)(F)F)c4)[C@H](Cc4ccccc4)C3)CC2)C1` (some centres unmarked) [Compound 97]: the IC50 at NK1 was 10 nM; on NK3 it was 2.51 µM.
Consider `O=C(C1COc2ccccc2O1)N1CCC(N2CCN([C@H]3CCN(C(=O)c4cc(C(F)(F)F)cc(C(F)(F)F)c4)[C@H](Cc4ccccc4)C3)CC2)C1` (some centres unmarked) [Compound 98], for which the IC50 is 12.6 nM on NK1 and 5.01 µM on NK3.
For `O=C(C1COC2CCCCC2O1)N1CCC(N2CCN([C@H]3CCN(C(=O)c4cc(C(F)(F)F)cc(C(F)(F)F)c4)[C@H](Cc4ccccc4)C3)CC2)C1` (some centres unmarked) [Compound 99], in that order: 7.94 nM and 3.16 µM.
Take `O=C(C(NCCO)c1ccccc1)N1CCC(N2CCN([C@H]3CCN(C(=O)c4cc(C(F)(F)F)cc(C(F)(F)F)c4)[C@H](Cc4ccccc4)C3)CC2)C1` (some centres unmarked) [Compound 106]: the IC50 at NK1 was 31.6 nM; on NK3 it was 3.98 µM.
As to `O=C(C(c1ccccc1)N1CCCC1)N1CCC(N2CCN(C3CCN(C(=O)c4cc(C(F)(F)F)cc(C(F)(F)F)c4)C(Cc4ccccc4)C3)CC2)C1` (centres unmarked) [Compound 108], the IC50 on NK1 was 31.6 nM; at NK3, 2.51 µM.
Consider `COC(C(=O)N1CCC(N2CCN(C3CCN(C(=O)c4cc(C(F)(F)F)cc(C(F)(F)F)c4)C(Cc4ccccc4)C3)CC2)C1)c1ccccc1` (centres unmarked) [Compound 109], for which the IC50 on NK1 was 12.6 nM; at NK3, 7.94 µM.
On to `Cc1nccn1C(C(=O)N1CCC(N2CCN(C3CCN(C(=O)c4cc(C(F)(F)F)cc(C(F)(F)F)c4)C(Cc4ccccc4)C3)CC2)C1)c1ccccc1` (centres unmarked) [Compound 110], for which the IC50 on NK1 is 20 nM; on NK3, 5.01 µM.
For `O=C(C(c1ccccc1)n1cc(Br)cn1)N1CCC(N2CCN([C@H]3CCN(C(=O)c4cc(C(F)(F)F)cc(C(F)(F)F)c4)[C@H](Cc4ccccc4)C3)CC2)C1` (some centres unmarked) [Compound 111], in that order: 79.4 nM and 6.31 µM.
Taken in the same sequence, the figures for `CC(C)(C)OC(=O)N1CCC(N2CCN(C3CCN(C(=O)c4cc(C(F)(F)F)cc(C(F)(F)F)c4)C(Cc4ccccc4)C3)CC2)C1` (centres unmarked) [Compound 130] were 39.8 nM and 3.16 µM.
Taken in the same sequence, the figures for `CN(C)C(=O)N1CCC(N2CCN([C@H]3CCN(C(=O)c4cc(C(F)(F)F)cc(C(F)(F)F)c4)[C@H](Cc4ccccc4)C3)CC2)C1` (some centres unmarked) [Compound 145] were 12.6 nM and 2 µM.
For the molecule `Cc1nnsc1C(=O)N1CCC(N2CCN(C3CCN(C(=O)c4cc(C(F)(F)F)cc(C(F)(F)F)c4)C(Cc4ccc(Cl)c(Cl)c4)C3)CC2)C1` (centres unmarked) [Compound 161], the IC50 on NK1 is 12.6 nM; on NK3, 3.16 µM.
For `O=C(c1snnc1CO)N1CCC(N2CCN(C3CCN(C(=O)c4cc(C(F)(F)F)cc(C(F)(F)F)c4)C(Cc4ccccc4)C3)CC2)C1` (centres unmarked) [Compound 166], in that order: 6.31 nM and 1.58 µM.
As for `O=C(c1cccnc1Cl)N1CCC(N2CCN([C@H]3CCN(C(=O)c4cc(C(F)(F)F)cc(C(F)(F)F)c4)[C@H](Cc4ccccc4)C3)CC2)C1` (some centres unmarked) [Compound 168], the IC50 on NK1 was 7.94 nM; at NK3, 0.501 µM.
Consider `COCC(=O)N1CCC(N2CCN(C3CCN(C(=O)c4cc(C(F)(F)F)cc(C(F)(F)F)c4)C(Cc4ccccc4)C3)CC2)C1` (centres unmarked) [Compound 177], for which the IC50 on NK1 is 63.1 nM; on NK3, 2.51 µM.
Taken in the same sequence, the figures for `O=C(C1CCC1)N1CCC(N2CCN([C@H]3CCN(C(=O)c4cc(C(F)(F)F)cc(C(F)(F)F)c4)[C@H](Cc4ccccc4)C3)CC2)C1` (some centres unmarked) [Compound 179] were 6.31 nM and 1.58 µM.
For `CC(=O)N1CCCC1C(=O)N1CCC(N2CCN([C@H]3CCN(C(=O)c4cc(C(F)(F)F)cc(C(F)(F)F)c4)[C@H](Cc4ccccc4)C3)CC2)C1` (some centres unmarked) [Compound 187], in that order: 15.8 nM and 5.01 µM.
Taken in the same sequence, the figures for `O=C(C(=O)N1CCC(N2CCN([C@H]3CCN(C(=O)c4cc(C(F)(F)F)cc(C(F)(F)F)c4)[C@H](Cc4ccccc4)C3)CC2)C1)c1cccs1` (some centres unmarked) [Compound 188] were 25.1 nM and 2 µM.
